Results: patent US20120052142A1, “BIOLOGICALLY ACTIVE COMPOSITIONS FROM Schisandra chinensis FOR TREATING COLORECTAL CANCER” (Dr. Chang Naturals, LLC, priority 2010, published 2012)
“Also recorded” adds a separate entry of the source. Where two headings read alike, the source gives them in different places.

Experiments:
[1] = tested on: human colorectal carcinoma cell line HT29; assay: MTS cell viability assay, HT-29; format: cell-based
From the text: The comestible use of the fruit products and its potential anticancer properties prompted the current investigation as to whether the active constituents could be used to treat colorectal cancer. The robust MTS cell viability assay with the p53-mutant human colon HT-29 cell line served as an assay-guided screening tool for the purification of the active principles of the fruit extract (see further description in the Example section).
Erythroleukemia K562, human colon HT-29 and breast MCF-7 cancer cell lines were obtained from the American Type Culture Collection (Manassas, Va., USA). All cells were maintained in Dulbecco's modified Eagle's medium (DMEM) supplemented with 10% fetal bovine serum, penicillin (100 U ml^−1) and streptomycin (100 U ml^−1). Cells were incubated at 37° C. in a 5% CO2 humidified atmosphere.
Cells were seeded at a density of 1.5×10^4 cells/well on a 96-well plate. When the cells reached 60 to 70% confluency, the growth medium was aspirated and the wells were rinsed with pre-warmed PBS. Test compounds at various concentrations or 1% DMSO (vehicle control) were then added and the plates were incubated for 72 h. After incubation, 40 μL of a solution of CellTiter 96 Aqueous One Solution (Promega, Madison, Wis., USA) containing MTS [3-(4,5-dimethylthiazol-2-yl)-5-(3-carboxymethoxyphenyl)-2-(4-sulfophenyl)-2H-tetrazolium)] and an electron coupling reagent (phenazine ethosulfate) were added to each well with an auto-repeat pipetor. The plates were incubated for 3 hours during which time the reagent was bio-reduced into a colored formazan product by the intracellular dehydrogenase enzymes of metabolically active cells. The quantity of formazan produced is directly proportional to the number of living cells in the cultures. The absorbance (A) was measured at 490 nm (reference at 690 nm) on a PowerWave 200 microplate reader (Bio-Tek Instruments). The results were expressed as percent cell viability, calculated for each drug concentration using the formula:
% Viability=(A treated group/A control group)×100%.
(100% viability was represented by samples with DMSO vehicle control).
The half-maximal inhibitory concentration, IC50, values were obtained from the sigmoidal curve by plotting the percentage viability of cells against the drug concentration using Psi-Plot version 9, Poly Software International (Pearl River, N.Y., USA).

colon cell line LoVo = settings: Planta Medica 2010: 76:1672-1677; cited from earlier work
hepatic carcinoma = settings: especially in high concentrations; Molecular Medicine Reports 2:725-732, 2009; cited from earlier work
[2] = HT29, MTS cell viability, 72 h, average of two independent experiments in triplicate
[3] = HT-29, from dose-response curves (FIG. 4, FIG. 5), read-out: concentration inhibiting cell growth by 50% (IC50), molar basis

SMILES | Activity IC50 [1, 2] [µg/mL] | anti-proliferative activity against HT-29 (in words) ([1]; HT-29) | IC50 [1, 3] [µM] | IC50 ([1]; Homo sapiens, HT-29, HT29, MTS cell viability, 72 h, average of two independent experiments in triplicate, read-out: Activity IC50) [µg/mL] | IC50 ([1]; Homo sapiens, HT-29, from dose-response curves (FIG. 4, FIG. 5), read-out: concentration inhibiting cell growth by 50% (IC50), molar basis) [µM] | activity against LoVo (in words) (colon cell line LoVo) | apoptosis induction in hepatic carcinoma (in words) (hepatic carcinoma) | anti-proliferative activity against HT-29 (in words) ([1]; HT-29, listed as schisandrin)
C/C=C(/C)C(=O)Oc1c(OC)c(OC)cc2c1-c1c(cc(OC)c(OC)c1OC)C[C@](C)(O)[C@@H](C)C2 [Angeloylgomisin H, angeloylgomisin H] | 348 | moderate activity | 696 |  |  |  |  | 
COc1cc2c(c(OC)c1OC)-c1c(cc(OC)c(OC)c1OC)C[C@H](C)[C@@H](C)C2 [Deoxyschisandrin, deoxyschisandrin] |  |  |  | 140 | 336 |  |  | 
COc1cc2c(c(OC)c1OC)-c1c(cc3c(c1OC)OCO3)C[C@H](C)[C@](C)(O)C2 [Gomisin A, gomisin A] | 300 |  | 716 |  |  |  |  | 
COc1cc2c(c(OC)c1OC)-c1c(cc3c(c1OC)OCO3)C[C@H](C)[C@H](C)C2 [Gomisin N, gomisin N] | 17 |  | 43 |  |  | do not find Gomisin N to be active | induces high apoptotic levels | 
COc1cc2c(c(OC)c1OC)-c1c(cc(OC)c(OC)c1OC)C[C@](C)(O)[C@@H](C)C2 [Schisandrin, schisandrin] | >1000 | devoid of detectable biological activity |  |  |  |  |  | does not show any activity; also recorded: inactive
